The term inhibition denotes the relative decrease from the control value, in per cent. Usually pIC50 stands for the negative decadic logarithm of the IC50, by convention in mol/L. A low value points to a high IC50.

pIC50: −log10 of the molar value.

Drawing on ChEMBL document CHEMBL4622858, “Synthesis of morpholine derivatives using the Castagnoli-Cushman reaction as BACE1 inhibitors: Unexpected binding activity of cyclic thioamides” (Bioorg Med Chem Lett, 2020), this text covers inhibition and IC50 for eight molecules.

Assay [1] addresses T1, Beta-secretase 1 (Homo sapiens, UniProt P56817). The assay is described as follows: Inhibition of human BACE1 using HiLyte Fluo488/QXL-520 peptide substrate at 10 uM by fluorescence assay.
Assay [2] concerns the target T1, Beta-secretase 1. The assay is described as follows: Inhibition of human BACE1 using HiLyte Fluo488/QXL-520 peptide substrate by fluorescence assay.

T1 sequence (P56817 whole entry): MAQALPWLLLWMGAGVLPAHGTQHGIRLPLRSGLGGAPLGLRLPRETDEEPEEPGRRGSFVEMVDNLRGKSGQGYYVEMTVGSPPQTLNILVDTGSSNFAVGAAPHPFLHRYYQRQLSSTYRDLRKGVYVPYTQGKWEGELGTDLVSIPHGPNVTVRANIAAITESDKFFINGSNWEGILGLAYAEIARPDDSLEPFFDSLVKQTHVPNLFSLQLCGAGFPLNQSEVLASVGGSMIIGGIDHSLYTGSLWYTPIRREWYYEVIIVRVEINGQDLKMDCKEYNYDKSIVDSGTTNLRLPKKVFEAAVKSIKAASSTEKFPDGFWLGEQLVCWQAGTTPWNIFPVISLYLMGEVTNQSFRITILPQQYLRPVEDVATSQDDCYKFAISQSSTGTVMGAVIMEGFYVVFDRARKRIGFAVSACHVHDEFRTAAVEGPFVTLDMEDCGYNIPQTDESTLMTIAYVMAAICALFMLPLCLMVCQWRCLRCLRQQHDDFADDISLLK

The molecule `COc1ccc([C@H]2NC(=N)CO[C@@H]2C(N)=O)cc1` came in with an inhibition in assay [1] of 27%.

As to `COC(=O)[C@H]1OCC(=S)N[C@@H]1c1ccc(OC)c(Br)c1`, in assay [1], the inhibition was determined as 26%.

For the molecule `COc1ccc([C@H]2NC(=N)CO[C@@H]2C(N)=O)cc1OC`, the inhibition in assay [1] stood at 10%.

`COC(=O)[C@H]1OCC(=S)N[C@@H]1c1ccc(C)cc1` registered an inhibition in assay [1] of 19%.

Consider `Cc1ccc([C@H]2NC(=N)CO[C@@H]2C(N)=O)cc1`, for which the inhibition in assay [1] is 14%.

Consider `COC(=O)[C@H]1OCC(=S)N[C@@H]1c1ccc(OC)c(OC)c1`, for which, in assay [1], the inhibition was 24%.

In assay [1], `COC(=O)[C@H]1OCC(=S)N[C@@H]1c1ccc(OC)cc1` registered an inhibition of 40%. In assay [2], this molecule gave a negative logarithm of the IC50 (pIC50) of 5.24.

In assay [1], `COc1ccc([C@H]2NC(=N)CO[C@@H]2C(N)=O)cc1Br` came in with an inhibition of 17%.
